The test system of one data set is stomach. Nature of the data set: Acute macroscopic gastric damage after oral dosing. It is filed as in vivo, Sprague-Dawley rats. To be noted: for Gastric Ulceration / macroscopic gastric ulcerations (in words, FIG. 8(1)): oral; for macroscopic gastric ulcerations (in words, FIG. 8(1)): IndoH 10 mg/kg or equimolar Indo dose in 2% (w/v) CMC solution. The procedure: Rats were fasted with access to water for 24 h prior to dosing and 3 hours post dosing. Three hours after administration of the test compound, the rats were euthanased and the stomach was excised and opened by incision along the greater curvature.
After the aforementioned anti-inflammatory activity experiments, the rats were immediately euthanased. Similarly, the stomach was excised and opened by incision along the greater curvature for the examination of the macroscopic ulcerations (mm^2).
Since there were no significant differences in the results obtained by the two methods, the results shown in FIG. 8(1) are those of the two methods combined.

The test system of another data set is small intestine. To be noted: oral.
For data set [1], the system named is carrageenan-induced paw edema. Nature of the data set: Inhibition of carrageenan-induced paw edema (rat paw oedema assay). As to conditions: oral. It is filed as in vivo, Sprague-Dawley rats.
The conditions of data set [2]: oral administration; cited from earlier work.
Where [3] appears, read: 10 mg/kg of Indo dispersed in MCT paste.
Setting [4] is: 1 mg/kg of Indo dispersed in MCT paste.
Setting [5] is: 2 mg/kg of Indo dispersed in MCT paste.

“Also recorded” adds a separate entry of the source.

For the compound `COc1ccc2c(c1)c(CC(=O)O)c(C)n2C(=O)c1ccc(Cl)cc1` [IndoH, Indomethacin, reference compound], the “Gastric Ulceration” value with stomach (setting [3]) came to 115 ± 30 mm^2. Besides, the “Small Intestine Ulceration (mm^2)” value with small intestine (setting [3]) is on record as 80 ± 7 mm^2. Also, in data set [1] (setting [3]), the Inhibition % is on record as 54 ± 12%.

As for `CN(C)C=O.CN(C)C=O.COc1ccc2c(c1)c(CC(=O)[O-])c(C)n2C(=O)c1ccc(Cl)cc1.COc1ccc2c(c1)c(CC(=O)[O-])c(C)n2C(=O)c1ccc(Cl)cc1.COc1ccc2c(c1)c(CC(=O)[O-])c(C)n2C(=O)c1ccc(Cl)cc1.COc1ccc2c(c1)c(CC(=O)[O-])c(C)n2C(=O)c1ccc(Cl)cc1.[Cu+2].[Cu+2]` [[Cu2(Indo)4(DMF)2], bis(N,N-dimethylformamide)tetrakis-μ-(O,O′-Indo)dicopper(II) complex], the “gastrointestinal toxicity compared with indomethacin (in words)” value in data set [2] was “less gastrointestinal toxicity than indomethacin”. Further, the “macroscopic gastric ulcerations (in words, FIG. 8(1))” value (“macroscopic gastric ulcerations” below) in the data set with stomach is “significant reductions (P<0.01) in gastric ulcerations as compared to those induced by IndoH”. Besides, in the data set with small intestine (equimolar Indo dose (10 mg/kg IndoH) in 2% (w/v) CMC solution, 24 h after dosing), the “small intestinal toxicity / ulceration (in words, FIG. 8(2))” value is on record as “low small intestinal toxicity”.

Consider “Bis(η^1-O-Indo)tris(pyridine)copper(II) [[Cu(Indo)2(Py)3], reference compound]”, for which, in the data set with stomach, the “macroscopic gastric ulcerations” value is “no significant difference in the gastric ulcerations induced by [Cu(Indo)2(Py)3] or IndoH”. The “efficacy in reducing inflammation (in words, FIG. 9)” value in data set [1] (equimolar Indo dose (10 mg/kg IndoH) in 2% (w/v) CMC solution) was “as effective as [Cu2(Indo)4(DMF)2] in reducing inflammation”.

With “Bis(η^2-O,O′-Indo)bis(pyrrolidine)copper(II)-2-pyrrolidine monohydrate [[Cu(Indo)2(Pyrro)2]]”, the “macroscopic gastric ulcerations” value with stomach (monohydrate) was “significant reductions (P<0.01) in gastric ulcerations as compared to those induced by IndoH; also recorded: significant reduction in gastric ulceration compared with [Cu2(Indo)4(DMF)2]”. In the data set on stomach (second experiment, different sample precipitated from solution with diethyl ether, four rats, same dose of Indo), this compound registered an average gastric ulceration of 21 mm^2.

For “bis(η^2-O,O′-Indo)bis(4-picoline)copper(II) [[Cu(Indo)2(4-pic)2]]”, the Inhibition % is recorded as 28% in data set [1] (setting [4]), 54% in data set [1] (setting [5]), 16% in data set [1] (2 mg/kg of Indo in 2% CMC) and 57 ± 19% in data set [1] (setting [3]).

For the compound “bis(η^2-O,O′-Indo)bis(imidazole)copper(II) [[Cu(Im)2(Indo)2]]”, the “Gastric Ulceration” value in the data set on stomach (setting [4]) turned out to be 2 ± 2 mm^2; in the data set on stomach (setting [5]), 3 ± 42 mm^2; in the data set with stomach (2 mg/kg of Indo in 2% CMC), 3 ± 3 mm^2; with stomach (setting [3]), 55 ± 42 mm^2. Further, the Inhibition % in data set [1] (setting [4]) is 31%; in data set [1] (setting [5]) it was 39%; in data set [1] (2 mg/kg of Indo in 2% CMC), 11%; in data set [1] (setting [3]) it was 45 ± 16%.

The values above are taken from US20090042848A1, “COPPER COMPLEXES” (priority 2005, published 2009).
